According to publication PMC7680126, “Structural asymmetry governs the assembly and GTPase activity of McrBC restriction complexes” (Nature Communications, 2020):

How the values were obtained:
[1] = target: T1, TgMcrB (full-length) (Thermococcus gammatolerans, UniProt C5A3Z3); test: malachite green phosphate release; assay type: biochemical; details: 1 mM GTP, 65 °C, pH 8.0, 150 mM KCl, 5 mM MgCl2; no McrC
T1 construct: gene TGAM_0453; full-length, residues 1-613; 6xHis tag cut by HRV 3C (Gly-Pro left); E. coli BL21(DE3); hexamer

[2] = target: T2, TgMcrBC complex (Thermococcus gammatolerans, UniProt C5A3Z3); test: malachite green phosphate release; assay type: biochemical; details: 1 mM GTP, 0.1 μM TgMcrC, 65 °C, pH 8.0, 150 mM KCl, 5 mM MgCl2
T2 construct: gene TGAM_0453; full-length McrB (1-613) and McrC (1-458); tags cut by HRV 3C (Gly-Pro left); E. coli; with McrC, endonuclease subunit of McrBC restriction complex (5-methylcytosine restriction system component McrC)
T2 sequence (C5A3Z3 1-613): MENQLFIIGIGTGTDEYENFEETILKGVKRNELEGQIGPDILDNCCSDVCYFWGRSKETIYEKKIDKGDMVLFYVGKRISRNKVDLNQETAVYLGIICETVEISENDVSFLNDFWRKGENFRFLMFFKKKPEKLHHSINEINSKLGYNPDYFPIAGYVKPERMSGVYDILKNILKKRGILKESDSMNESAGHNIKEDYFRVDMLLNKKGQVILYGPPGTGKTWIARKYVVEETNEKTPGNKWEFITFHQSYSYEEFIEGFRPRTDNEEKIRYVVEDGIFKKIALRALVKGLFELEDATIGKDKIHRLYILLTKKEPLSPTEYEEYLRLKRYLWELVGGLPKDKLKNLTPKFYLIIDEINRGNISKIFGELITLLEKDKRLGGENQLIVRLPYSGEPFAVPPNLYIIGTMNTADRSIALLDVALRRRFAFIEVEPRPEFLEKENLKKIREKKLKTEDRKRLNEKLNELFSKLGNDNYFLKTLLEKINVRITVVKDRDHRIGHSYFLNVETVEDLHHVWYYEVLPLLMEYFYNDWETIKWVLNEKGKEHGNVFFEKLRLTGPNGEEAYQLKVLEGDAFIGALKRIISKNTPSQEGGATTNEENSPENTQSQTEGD
T2 sequence (C5A3Z2 1-458 partner): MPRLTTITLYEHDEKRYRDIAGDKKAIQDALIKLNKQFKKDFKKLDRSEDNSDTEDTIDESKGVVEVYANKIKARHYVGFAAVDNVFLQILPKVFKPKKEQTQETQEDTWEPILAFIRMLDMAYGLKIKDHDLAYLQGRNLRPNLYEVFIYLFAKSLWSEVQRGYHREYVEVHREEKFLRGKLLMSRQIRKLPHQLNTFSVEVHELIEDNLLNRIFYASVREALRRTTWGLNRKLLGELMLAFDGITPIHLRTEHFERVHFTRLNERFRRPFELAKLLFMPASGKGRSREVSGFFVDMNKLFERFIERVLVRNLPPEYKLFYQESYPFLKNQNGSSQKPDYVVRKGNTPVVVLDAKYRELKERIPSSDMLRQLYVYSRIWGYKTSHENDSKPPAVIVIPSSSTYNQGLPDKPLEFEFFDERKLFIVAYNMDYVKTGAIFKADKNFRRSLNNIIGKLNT

Nc1nc2c(ncn2[C@@H]2O[C@H](COP(=O)(O)OP(=O)(O)OP(=O)(O)O)[C@@H](O)[C@H]2O)c(=O)[nH]1 [GTP]
basal GTPase activity [1]: Alanine substitutions at Asn410 and Asp413 in full-length TgMcrB abolish both basal and McrC-stimulated GTPase activity
McrC-stimulated GTPase activity [2]: Purified TgMcrC similarly stimulates TgMcrB’s basal GTPase activity
